Data as given in ChEMBL document CHEMBL5528028, “Discovery of benzopyridone cyanoacetates as new type of potential broad-spectrum antibacterial candidates” (Eur J Med Chem, 2024).
≈ marks a conversion by molar mass, not a printed value. Calls of active or inactive are those of the source. No cut-off for these calls is given here.

Assays:
[1] = tested on: Staphylococcus aureus; assay: Antibacterial activity against methicillin-resistant Staphylococcus aureus assessed growth inhibition by micro broth dilution method; format: functional
[2] = tested on: Staphylococcus aureus; assay: Antibacterial activity against Staphylococcus aureus assessed growth inhibition by micro broth dilution method; format: functional
[3] = tested on: Staphylococcus aureus; assay: Antibacterial activity against Staphylococcus aureus ATCC 25923 assessed growth inhibition by micro broth dilution method; format: functional
[4] = tested on: Staphylococcus aureus; assay: Antibacterial activity against Staphylococcus aureus ATCC 29213 assessed growth inhibition by micro broth dilution method; format: functional
[5] = tested on: Enterococcus faecalis; assay: Antibacterial activity against Enterococcus faecalis assessed growth inhibition by micro broth dilution method; format: functional
[6] = tested on: Klebsiella pneumoniae; assay: Antibacterial activity against Klebsiella pneumonia assessed growth inhibition by micro broth dilution method; format: functional
[7] = tested on: Escherichia coli; assay: Antibacterial activity against Escherichia coli assessed growth inhibition by micro broth dilution method; format: functional
[8] = tested on: Escherichia coli; assay: Antibacterial activity against Escherichia coli ATCC 25922 assessed growth inhibition by micro broth dilution method; format: functional
[9] = tested on: Pseudomonas aeruginosa; assay: Antibacterial activity against Pseudomonas aeruginosa assessed growth inhibition by micro broth dilution method; format: functional
[10] = tested on: Pseudomonas aeruginosa; assay: Antibacterial activity against Pseudomonas aeruginosa ATCC 27853 assessed growth inhibition by micro broth dilution method; format: functional
[11] = tested on: Acinetobacter baumannii; assay: Antibacterial activity against Acinetobacter baumannii assessed growth inhibition by micro broth dilution method; format: functional
[12] = tested on: Erythrocyte; assay: Hemolytic activity in human RBC incubated measured upto 128 ug/ml; format: toxicity, cell-based; settings: dose < 128 µg/ml
[13] = Cytotoxicity against human NOK cells assessed as cell viability at 8 ug/ml; format: toxicity, cell-based; settings: nok-si, dose 8 µg/ml
[14] = Cytotoxicity against human FHC cells assessed as cell viability at 8 ug/ml; format: toxicity, cell-based; settings: at 8 µg/mL, read-out: Activity
[15] = tested on: Staphylococcus aureus; assay: Bactericidal activity against Staphylococcus aureus ATCC 29213 assessed as time dependent killing at 4 times of MIC measured at 8 hrs; format: functional, organism-based
[16] = tested on: Klebsiella pneumoniae; assay: Bactericidal activity against Klebsiella pneumonia assessed as time dependent killing at 4 times of MIC measured at 8 hrs; format: functional, organism-based
[17] = tested on: Staphylococcus aureus; assay: Induction of resistance development in Staphylococcus aureus ATCC 29213 assessed as after 20 passages measured upto 4.5 times of MIC; format: functional
[18] = tested on: Klebsiella pneumoniae; assay: Induction of resistance development in Klebsiella pneumonia assessed as after 20 passages measured upto 4.5 times of MIC; format: functional
[19] = tested on: Staphylococcus aureus; assay: Anti-biofilm activity against Staphylococcus aureus ATCC 29213 assessed as relative biofilm clearance rate by crystal violet staining based assay; format: functional, organism-based
[20] = tested on: Klebsiella pneumoniae; assay: Anti-biofilm activity against Klebsiella pneumonia assessed as relative biofilm clearance rate by crystal violet staining based assay; format: functional, organism-based
[21] = tested on: Cell membrane; assay: Induction of outer membrane permeability in Klebsiella pneumonia assessed as increase in fluorescence intensity at 2 times of MIC by N-phenyl naphthylamine (NPN) dye based assay; format: cell membranes; settings: Klebsiella pneumoniae
[22] = tested on: Cell membrane; assay: Induction of inner membrane permeability in Staphylococcus aureus ATCC 29213 assessed as increase in fluorescence intensity by propidium iodide uptake based microscopic imaging assay; format: cell membranes
[23] = tested on: Cell membrane; assay: Induction of inner membrane permeability in Klebsiella pneumonia assessed as increase in fluorescence intensity by propidium iodide uptake based microscopic imaging assay; format: cell membranes; settings: Klebsiella pneumoniae
[24] = tested on: Cell membrane; assay: Induction of cytoplasmic membrane depolarization in Staphylococcus aureus ATCC 29213 assessed as increase in fluorescence intensity at 2 times of MIC measured upto 40 mins by DiSC35 dye based fluorescence method; format: cell membranes
[25] = tested on: Cell membrane; assay: Induction of cytoplasmic membrane depolarization in Klebsiella pneumonia assessed as increase in fluorescence intensity at 2 times of MIC measured upto 40 mins by DiSC35 dye based fluorescence method; format: cell membranes; settings: Klebsiella pneumoniae
[26] = tested on: Cell membrane; assay: Induction of disruption of membrane integrity in Staphylococcus aureus ATCC 29213 assessed as leakage of intracellular proteins by Acid Blue 90 based assay; format: cell membranes
[27] = tested on: Cell membrane; assay: Induction of disruption of membrane integrity in Klebsiella pneumonia assessed as leakage of intracellular proteins by Acid Blue 90 based assay; format: cell membranes; settings: Klebsiella pneumoniae
[28] = tested on: Staphylococcus aureus; assay: Antibacterial activity against Staphylococcus aureus ATCC 29213 assessed as morphological changes by measuring shrunken and cracked cells at 4 times of MIC by SEM microscopic analysis; format: functional, organism-based
[29] = tested on: Klebsiella pneumoniae; assay: Antibacterial activity against Klebsiella pneumonia assessed as morphological changes by measuring shrunken and cracked cells at 4 times of MIC by SEM microscopic analysis; format: functional, organism-based
[30] = tested on: Calf thymus DNA; assay: Binding affinity to calf thymus DNA assessed as change in absorption by UV-Vis absorption spectra analysis; format: nucleic-acid assay; settings: Bos taurus
[31] = tested on: Calf thymus DNA; assay: Induction of calf thymus DNA double helix loss assessed as reduction in fluorescence intensity at 525 nm wavelength by acridine orange competition based assay; format: nucleic-acid assay; settings: Bos taurus
[32] = tested on: Staphylococcus aureus; assay: Induction of ROS generation in Staphylococcus aureus ATCC 29213 assessed as increase in fluorescence intensity by DCFH-DA based microscopic analysis; format: functional, organism-based
[33] = tested on: Klebsiella pneumoniae; assay: Induction of ROS generation in Klebsiella pneumonia assessed as increase in fluorescence intensity by DCFH-DA based microscopic analysis; format: functional, organism-based
[34] = tested on: Staphylococcus aureus; assay: Induction of ROS generation in Staphylococcus aureus ATCC 29213 assessed as loss of GSH activity by Ellmans method; format: functional, organism-based
[35] = tested on: Klebsiella pneumoniae; assay: Induction of ROS generation in Klebsiella pneumonia assessed as loss of GSH activity by Ellmans method; format: functional, organism-based
[36] = tested on: Staphylococcus aureus; assay: Antibacterial activity against Staphylococcus aureus ATCC 29213 assessed as decrease in relative metabolic activity at 4 times of MIC by Alamar Blue assays; format: functional, organism-based
[37] = tested on: Klebsiella pneumoniae; assay: Antibacterial activity against Klebsiella pneumonia assessed as decrease in relative metabolic activity at 4 times of MIC by Alamar Blue assays; format: functional, organism-based
[38] = Thermodynamic solubility of the compound in water; format: physicochemical; settings: read-out: Therm_solubility
[39] = tested on: Staphylococcus aureus; assay: Anti-biofilm activity against Staphylococcus aureus ATCC 29213 assessed as relative biofilm clearance rate at 8 times of MIC by crystal violet staining based assay; format: functional
[40] = tested on: Klebsiella pneumoniae; assay: Anti-biofilm activity against Klebsiella pneumonia assessed as relative biofilm clearance rate at 8 times of MIC by crystal violet staining based assay; format: functional

CCOC(=O)c1cn(Cc2ccc(Cl)cc2Cl)c2cc([C-](C#N)C(=O)OCC)c(F)cc2c1=O.[Na+] (stereo not given) gave an MIC [1] of 16 µg/mL, an MIC [2] of 32 µg/mL and an MIC [3] of 0.25 µg/mL. It also gave an MIC [4] of 0.25 µg/mL, an MIC [5] of 1 µg/mL and an MIC [6] of 0.25 µg/mL. It also gave an MIC [7] of 0.5 µg/mL, an MIC [8] of 0.25 µg/mL and an MIC [9] of 4 µg/mL. For the same compound, the MIC [10] was 0.5 µg/mL, the MIC [11] was 2 µg/mL and the Activity [12] was “Non-Toxic”. For the same compound, the Activity [13] was “Non-Toxic” and the viability at 8 ug/ml [14] was 70%.
For CCCCCCCCn1cc(C(=O)OCC)c(=O)c2cc(F)c(C(C#N)C(=O)OCC)cc21 (stereo not given), the Activity [15] was “Active”, the Activity [16] was “Active” and the Activity [17] was “Active”. For the same compound, the Activity [18] was “Active”, the Activity [19] was “Dose-Dependent Effect” and the Activity [20] was “Dose-Dependent Effect”. For the same compound, the Activity [21] was “Dose-Dependent Effect”, the Activity [22] was “Dose-Dependent Effect” and the Activity [23] was “Dose-Dependent Effect”. For the same compound, the Activity [24] was “Active”, the Activity [25] was “Active” and the Activity ([25]; DISRUPTING AGENT) was “Active”. The Activity [26] was “Dose-Dependent Effect”, the Activity [27] was “Dose-Dependent Effect” and the Activity [28] was “Active”. The Activity [29] was “Active”, the Activity [30] was “Active” and the Activity [31] was “Active”. The Activity [32] was “Dose-Dependent Effect”, the Activity [33] was “Dose-Dependent Effect” and the Activity [34] was “Dose-Dependent Effect”. For the same compound, the Activity [35] was “Dose-Dependent Effect”, the Activity [36] was “Active” and the Activity [37] was “Active”.
For CCOC(=O)C(C#N)c1cc2c(cc1F)c(=O)c(C(=O)O)cn2C1CC1 (stereo not given), the MIC [1] was 2 µg/mL (≈ 5.58 µM), the MIC [2] was 0.5 µg/mL (≈ 1.4 µM) and the MIC [3] was 8 µg/mL (≈ 22.3 µM). The MIC [4] was 0.5 µg/mL (≈ 1.4 µM), the MIC [5] was 64 µg/mL (≈ 179 µM) and the MIC [6] was 0.25 µg/mL (≈ 0.698 µM). It also gave an MIC [7] of 32 µg/mL (≈ 89.3 µM), an MIC [8] of 0.5 µg/mL (≈ 1.4 µM) and an MIC [9] of 16 µg/mL (≈ 44.7 µM). For the same compound, the MIC [10] was 4 µg/mL (≈ 11.2 µM), the MIC [11] was 1 µg/mL (≈ 2.79 µM) and the Activity [15] was “Active”. The Activity [16] was “Active”, the Activity [12] was “Non-Toxic” and the Activity [21] was “Dose-Dependent Effect”. The Activity [24] was “Active”, the Activity ([25]; DISRUPTING AGENT) was “Active” and the Activity [26] was “Dose-Dependent Effect”. The Activity [27] was “Dose-Dependent Effect”, the Activity [32] was “Dose-Dependent Effect” and the Activity [33] was “Dose-Dependent Effect”. For the same compound, the Activity [34] was “Dose-Dependent Effect”, the Activity [35] was “Dose-Dependent Effect” and the Activity [36] was “Active”. The Activity [37] was “Active”.
Compound CCOC(=O)c1cn(Cc2ccc(Cl)c(Cl)c2)c2cc([C-](C#N)C(=O)OCC)c(F)cc2c1=O.[Na+] (stereo not given) has an MIC [1] of 8 µg/mL, an MIC [2] of 64 µg/mL and an MIC [3] of 0.25 µg/mL. The MIC [4] was 0.25 µg/mL, the MIC [5] was 1 µg/mL and the MIC [6] was 0.25 µg/mL. It also gave an MIC [7] of 0.25 µg/mL, an MIC [8] of 0.25 µg/mL and an MIC [9] of 4 µg/mL. It also gave an MIC [10] of 0.5 µg/mL, an MIC [11] of 1 µg/mL and a solubility thermodynamic [38] of 97.3 µg/mL. For the same compound, the Activity [39] was 70% and the Activity [40] was 70%.
Work on CCOC(=O)c1cn2c3c(c([C-](C#N)C(=O)OCC)c(F)cc3c1=O)OC[C@@H]2C.[Na+] (stereo not given in full) yielded an MIC [1] of 128 µg/mL, an MIC [2] of 256 µg/mL and an MIC [3] of 4 µg/mL. It also gave an MIC [4] of 256 µg/mL, an MIC [5] of 128 µg/mL and an MIC [6] of 256 µg/mL. The MIC [7] was 64 µg/mL, the MIC [8] was 64 µg/mL and the MIC [9] was 256 µg/mL. The MIC [10] was 64 µg/mL and the MIC [11] was 128 µg/mL.
Work on CCOC(=O)c1cn(CC(=O)N2CCN(C(=O)OC(C)(C)C)CC2)c2cc(F)c(F)cc2c1=O yielded an MIC [1] of 64 µg/mL (≈ 133 µM), an MIC [2] of 256 µg/mL (≈ 534 µM) and an MIC [3] of 128 µg/mL (≈ 267 µM). The MIC [4] was 64 µg/mL (≈ 133 µM), the MIC [5] was 64 µg/mL (≈ 133 µM) and the MIC [6] was 256 µg/mL (≈ 534 µM). The MIC [7] was 4 µg/mL (≈ 8.34 µM), the MIC [8] was 64 µg/mL (≈ 133 µM) and the MIC [9] was 64 µg/mL (≈ 133 µM). It also gave an MIC [10] of 32 µg/mL (≈ 66.7 µM) and an MIC [11] of 64 µg/mL (≈ 133 µM).
Work on CCOC(=O)c1cn(CC=C(C)C)c2cc([C-](C#N)C(=O)OCC)c(F)cc2c1=O.[Na+] (stereo not given) yielded an MIC [1] of 256 µg/mL, an MIC [2] of 256 µg/mL and an MIC [3] of 0.5 µg/mL. It also gave an MIC [4] of 8 µg/mL, an MIC [5] of 256 µg/mL and an MIC [6] of 8 µg/mL. The MIC [7] was 256 µg/mL, the MIC [8] was 8 µg/mL and the MIC [9] was 256 µg/mL. The MIC [10] was 8 µg/mL and the MIC [11] was 256 µg/mL.
